SMILES strings stand for the structures. pIC50: −log10 of the molar value.

Sequence of Human immunodeficiency virus type 1 integrase (Q7ZJM1 whole entry): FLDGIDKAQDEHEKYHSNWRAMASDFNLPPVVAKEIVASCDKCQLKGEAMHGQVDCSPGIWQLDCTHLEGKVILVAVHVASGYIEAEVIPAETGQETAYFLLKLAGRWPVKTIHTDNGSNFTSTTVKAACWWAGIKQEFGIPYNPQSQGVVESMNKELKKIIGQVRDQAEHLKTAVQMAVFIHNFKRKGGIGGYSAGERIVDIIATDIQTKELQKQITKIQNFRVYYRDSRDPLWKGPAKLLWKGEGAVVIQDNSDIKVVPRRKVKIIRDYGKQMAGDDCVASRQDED

The assay concerns the target Human immunodeficiency virus type 1 integrase (Human immunodeficiency virus 1, UniProt Q7ZJM1). Nature of the assay: Inhibition of Human immunodeficiency virus 1 integrase.
With `O=C(O)/C(O)=C/C(=O)c1cn(Cc2ccccc2)c2ccccc12`, the pIC50 (in general, −log10 of the IC50, conventionally taken in molar units) was 6.00.

Molecule `O=c1oc2ccccc2c(O)c1-c1cccc(-c2c(O)c3ccccc3oc2=O)c1` gave a pIC50 of 4.96. This pIC50 is 1.04 log units lower than that of the molecule before.

On to `O=c1oc2ccccc2c(O)c1C(c1ccc(-c2ccccc2)cc1)c1c(O)c2ccccc2oc1=O`, for which the pIC50 was 4.89. This pIC50 and that of the molecule before are within 0.2 log units of each other. Take `O=c1oc2ccccc2c(O)c1C(c1ccc(OCc2ccccc2)c(OCc2ccccc2)c1)c1c(O)c2ccccc2oc1=O`: the pIC50 was 4.92. With `CCn1cc(C(=O)/C=C(\O)C(=O)O)c2ccccc21`, the pIC50 is 5.52. The same measure for `O=C(O)/C(O)=C/C(=O)c1cc2cc3c(cc2n1Cc1ccccc1)OCO3`: 5.70. The result for `O=c1oc2cc(O)ccc2c(O)c1C(c1cccnc1)c1c(O)c2ccc(O)cc2oc1=O` reads 4.60. The result for `CCn1cc(C(=O)/C=C(\O)C(=O)O)c2cc3c(cc21)OCO3` reads 5.52; that for `O=c1oc2ccccc2c(O)c1-c1ccccc1-c1c(O)c2ccccc2oc1=O`, 4.69. In turn, `O=c1oc2cc(O)ccc2c(O)c1C(c1ccccc1)c1c(O)c2ccc(O)cc2oc1=O` showed a pIC50 of 4.65. The same measure for `CCn1c(C(=O)/C=C(\O)C(=O)O)cc2cc3c(cc21)OCO3`: 5.30; for `O=c1oc2ccccc2c(O)c1C(c1cccs1)c1c(O)c2ccccc2oc1=O`: 3.83; for `O=c1oc2cc(O)ccc2c(O)c1Cc1c(O)c2ccc(O)cc2oc1=O`: 4.35. The result for `O=c1oc2ccccc2c(O)c1C(c1ccc2c(c1)CC=CC2)c1c(O)c2ccccc2oc1=O` reads 4.80; that for `Cn1c(C(=O)/C=C(\O)C(=O)O)cc2ccccc21`, 5.22. `O=C(O)/C(O)=C/C(=O)c1cc2ccccc2n1Cc1ccccc1` gave a pIC50 of 6.00. `O=c1oc2cc(O)ccc2c(O)c1C(c1ccc2c(c1)CC=CC2)c1c(O)c2ccc(O)cc2oc1=O` had a pIC50 of 5.46.

For the molecule `Cn1cc(C(=O)/C=C(\O)C(=O)O)c2cc3c(cc21)OCO3`, the pIC50 is 5.52. This pIC50 and that of the molecule before are within 0.2 log units of each other. For the molecule `O=c1oc2ccccc2c(O)c1C(c1ccco1)c1c(O)c2ccccc2oc1=O`, the pIC50 was 3.88. With `CCn1c(C(=O)/C=C(\O)C(=O)O)cc2ccccc21`, the pIC50 was 5.80. The result for `O=c1oc2ccccc2c(O)c1C(c1ccccc1)c1c(O)c2ccccc2oc1=O` reads 4.42; that for `O=c1oc2ccccc2c(O)c1C(c1cnc2c(c1)CC=CC2)c1c(O)c2ccccc2oc1=O`, 4.64; that for `O=c1oc2ccccc2c(O)c1C(c1ccc(O)cc1)c1c(O)c2ccccc2oc1=O`, 4.13. `O=c1oc2ccccc2c(O)c1C(c1cccc(C(c2c(O)c3ccccc3oc2=O)c2c(O)c3ccccc3oc2=O)c1)c1c(O)c2ccccc2oc1=O`: the pIC50 is 5.92. The same measure for `CN(C)c1ccc(C(c2c(O)c3ccccc3oc2=O)c2c(O)c3ccccc3oc2=O)cc1`: 4.31; for `Cn1c(C(=O)/C=C(\O)C(=O)O)cc2cc3c(cc21)OCO3`: 5.70; for `Cn1cc(C(=O)/C=C(\O)C(=O)O)c2ccccc21`: 5.70.

`O=c1oc2ccccc2c(O)c1Cc1ccc(Cc2c(O)c3ccccc3oc2=O)cc1` showed a pIC50 of 4.16. The same measure for `O=c1oc2cc(O)ccc2c(O)c1C(c1ccc(CCc2ccccc2)cc1)c1c(O)c2ccc(O)cc2oc1=O`: 5.75; for `O=c1oc2cc(O)ccc2c(O)c1C(c1ccc(C(c2c(O)c3ccc(O)cc3oc2=O)c2c(O)c3ccc(O)cc3oc2=O)cc1)c1c(O)c2ccc(O)cc2oc1=O`: 5.52.

Source of the values: ChEMBL document CHEMBL3045301, “Pharmacophore modeling of some novel indole -diketo acid and coumarin-based derivatives as HIV integrase inhibitors” (Med Chem Res, 2012).
